Measured values reported in paper PMC10674565 (Pharmaceuticals, 2023).

Tests used:
[1] = Cytotoxicity (MTT) assay, Caco-2 cells; type: cell-based; conditions: human, 1–500 µM, read-out: viability compared to the control
Experimental: (§1) Caco-2 and HEK93 cells were incubated in a 96-well microplate (10^4 cells per well) with different concentrations (1, 10, 50, 100, and 500 µM) of EMHPS for 24 h. At the end of incubation, 20 μL of 0.5% 3-(4,5-dimethylthiazol-2-yl)-2,5-diphenyltetrazolium bromide (MTT) was added to each well, followed by a 2 h incubation. The MTT solution was then aspirated and 200 μL of […] dimethyl sulfoxide solution (PanEko) was added. Absorption was recorded after 10 min at 530 nm with a Stat Fax 2100 plate reader (Awareness Technology, Palm City, FL, USA). The survival of cells in the presence of EMHPS was calculated according to the equation: (optical density (OD) of test wells − OD of medium)/(OD of control wells − OD of medium) × 100%, where OD is the optical density.

[2] = Cytotoxicity (MTT) assay, HEK293 cells; type: cell-based; conditions: human, 1–500 µM, read-out: viability compared to the control
Experimental: as §1

[3] = molecular target: T1, ABCB1 (Homo sapiens, UniProt P08183); assay: Effect on ABCB1-mediated transport of fexofenadine through the Caco-2 cells monolayer
Experimental: Transport experiments were carried out in Transwell® systems (12 mm Transwell® with 0.4 µm Pore Polycarbonate Membrane Insert, Sterile, «Corning»). The Transwell® system consists of two chambers, apical and basolateral. […] The medium was changed every 2–3 days. The apical and basolateral chambers represent the luminal and blood/mesenteric lymph sides of the gastrointestinal tract, respectively.
The transepithelial electrical resistance (TEER) across the cell monolayers was monitored using a Millicell-ERS (electrical resistance system) to assess cell monolayer integrity. For transport studies, only monolayers with a TEER > 500 Ω cm^2 were used.
To study the roles of different parts of the EMHPS molecule for its action on ABCB1, experiments with succinic acid were also carried out.
Prior to the transport experiments, the culture media was aspirated, and the monolayers were washed twice with transport medium and preincubated with EMHPS, succinic acid, or verapamil for 30 min.
The data are presented as the mean ± SD from three monolayers.
The resulting sample of the transport medium (50 μL) was diluted in 150 μL of the mobile phase, and 100 μL of the resulting solution was injected into the chromatograph. A Phenomenex Synergi 4u Polar-RP 80A (250 × 4.6) chromatographic column was used for analysis. The separation temperature was 35 °C; the flow rate was 1 mL/min. Composition of the mobile phase: acetonitrile (128 mL), deionized water (267.4 mL), acetic acid (6.33 mL), triethylamine to pH = 6.7. […] Detection was carried out at a wavelength of 220 nm.
Half maximal inhibitory concentration (IC50) values were determined through nonlinear regression based on the three-parameter logistic function.

[4] = set-up: method as in earlier work; conditions: blood plasma; cited from earlier work
[5] = molecular target: T1, ABCB1; assay: EMHPS transport through the Caco-2 cells monolayer (ABCB1 substrate test); type: in vitro ADME; set-up: Caco-2 cells were used to test the effect of EMHPS on the expression and activity of ABCB1; endogenous in cells; host or cells: Caco-2
Experimental: The medium was changed every 2–3 days.
The medium in chambers was removed and the cell monolayers were washed twice in warm (37 °C) transport medium (Hanks‚ balanced salt solution containing 10 mM HEPES and 1% dimethylsulfoxide (DMSO)). […] Chamber–recipient was filled with transport medium without EMHPS. At 60, 120, and 180 min, 100 μL samples were taken from the recipient chamber and the drug concentration was analyzed. EMHPS transport was assessed in the absorptive (apical to basolateral, a-b) and secretory (b-a) directions.
The apparent permeability (Papp) of EMHPS through Caco-2 monolayers was calculated using Equation (1). (1) Papp=dQ/dt×1/A×C0
A, membrane surface area (1.12 cm^2); C0, EMHPS concentration at t = 0 µM; and dQ/dt, amount of EMHPS transported within a given time period µM/s.
The ratio of Papp (b-a) and Papp (a-b), known as the efflux ratio (ER), was calculated in accordance with the following Equation (2):(2) ER=Papp b-a/Papp a-b
The ER was used as a marker for permeability through Caco-2 cell monolayers.
EMHPS concentrations in the transport medium (transport experiments with Caco-2 cells) were analyzed using HPLC-UV (HPLC chromatograph Stayer) with UV detection at a wavelength of 296 nm. The sample (50 µL) was diluted in 150 µL of the mobile phase, and 100 µL of the resulting solution was injected into the chromatograph. In the analysis, a Beckman Coulter 4.6 × 150 mm, 5 μm chromatographic column was used.
The separation temperature was 35 °C. The flow rate was 0.8 mL/min. Mobile phase composition: acetonitrile and water in a 20:80 v/v ratio with the addition of acetic acid to pH 3.25. The retention time of EMHPS under these conditions was 5.5 min.

[6] = human, Caco-2 cell monolayer on Transwell inserts, probe fexofenadine 150 µmol/L
[7] = human, EMHPS 10 µM, Caco-2 monolayer, M ± SD
[8] = human, EMHPS 100 µM, Caco-2 monolayer, M ± SD
[9] = human, EMHPS 250 µM, Caco-2 monolayer, M ± SD

T1 sequence (P08183 whole entry): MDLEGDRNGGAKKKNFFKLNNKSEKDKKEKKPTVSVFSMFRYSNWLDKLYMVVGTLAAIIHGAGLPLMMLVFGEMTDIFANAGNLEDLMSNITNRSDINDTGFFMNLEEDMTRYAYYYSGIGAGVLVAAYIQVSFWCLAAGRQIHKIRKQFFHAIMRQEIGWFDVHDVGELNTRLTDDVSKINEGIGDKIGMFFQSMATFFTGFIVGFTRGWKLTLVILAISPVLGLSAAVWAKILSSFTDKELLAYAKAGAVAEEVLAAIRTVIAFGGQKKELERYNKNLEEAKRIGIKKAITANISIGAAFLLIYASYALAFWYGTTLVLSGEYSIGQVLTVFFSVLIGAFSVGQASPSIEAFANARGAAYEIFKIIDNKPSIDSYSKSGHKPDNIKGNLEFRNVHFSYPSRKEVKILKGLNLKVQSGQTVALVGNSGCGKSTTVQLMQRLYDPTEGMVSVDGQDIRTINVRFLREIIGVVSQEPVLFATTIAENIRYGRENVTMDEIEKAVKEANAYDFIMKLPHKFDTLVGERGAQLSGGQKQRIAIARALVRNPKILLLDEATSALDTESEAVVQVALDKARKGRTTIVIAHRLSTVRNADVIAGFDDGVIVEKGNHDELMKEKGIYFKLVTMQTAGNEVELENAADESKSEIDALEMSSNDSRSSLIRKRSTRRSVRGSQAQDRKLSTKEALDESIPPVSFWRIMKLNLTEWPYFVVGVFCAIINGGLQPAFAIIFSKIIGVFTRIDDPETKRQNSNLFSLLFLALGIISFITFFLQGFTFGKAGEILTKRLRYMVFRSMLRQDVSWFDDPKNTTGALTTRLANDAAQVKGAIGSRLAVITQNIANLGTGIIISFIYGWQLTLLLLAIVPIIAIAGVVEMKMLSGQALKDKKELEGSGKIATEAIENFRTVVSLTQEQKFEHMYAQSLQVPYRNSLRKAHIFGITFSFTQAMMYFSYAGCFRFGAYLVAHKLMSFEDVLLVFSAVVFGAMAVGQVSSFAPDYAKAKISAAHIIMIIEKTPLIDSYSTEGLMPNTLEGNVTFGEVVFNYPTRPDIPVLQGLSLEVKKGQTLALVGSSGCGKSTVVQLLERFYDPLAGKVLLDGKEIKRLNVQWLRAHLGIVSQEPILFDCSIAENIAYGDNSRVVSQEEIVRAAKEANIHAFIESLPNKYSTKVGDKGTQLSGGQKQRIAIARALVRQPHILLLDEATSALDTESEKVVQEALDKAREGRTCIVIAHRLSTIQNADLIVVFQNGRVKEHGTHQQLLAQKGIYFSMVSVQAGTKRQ

CCc1nc(C)ccc1O.O=C(O)CCC(=O)O [EMHPS, 2-Ethyl-6-methyl-3-hydroxypyridine succinate]
viability at 24 h [1]: 85 to 105% | viability at 24 h [2]: 85 to 105% | IC50 [3]: 92 ± 24.3 µM | decrease of basal-to-apical fexofenadine transport ([3]; 200 µM, vs control, Caco-2 monolayer): 52.5% | inhibition at 50 µM [3, 6]: 50.2% | inhibition at 100 µM [3, 6]: 72.9% | inhibition at 200 µM [3, 6]: 90.6% | Cmax [4]: 390 nM | substrate of ABCB1 ([5]; Caco-2 monolayer, 10, 100, and 250 µM): not a substrate of ABCB1 | Papp A→B at 180 min, 10 µM [5, 7]: 7.66 ×10⁻⁶ cm/s | Papp B→A at 180 min, 10 µM [5, 7]: 7.56 ×10⁻⁶ cm/s | efflux ratio at 180 min, 10 µM ([5]; human, EMHPS 10 µM, Caco-2 monolayer, M ± SD, read-out: ER (Papp b-a/Papp a-b)): 0.99 ± 0.323 | Papp A→B at 180 min, 100 µM [5, 8]: 7.05 ×10⁻⁶ cm/s | Papp B→A at 180 min, 100 µM [5, 8]: 6.63 ×10⁻⁶ cm/s | efflux ratio at 180 min, 100 µM ([5]; human, EMHPS 100 µM, Caco-2 monolayer, M ± SD, read-out: ER (Papp b-a/Papp a-b)): 0.94 ± 0.039 | Papp A→B at 180 min, 250 µM [5, 9]: 22.3 ×10⁻⁶ cm/s | Papp B→A at 180 min, 250 µM [5, 9]: 16.5 ×10⁻⁶ cm/s | efflux ratio at 180 min, 250 µM ([5]; human, EMHPS 250 µM, Caco-2 monolayer, M ± SD, read-out: ER (Papp b-a/Papp a-b)): 0.75 ± 0.26 | efflux ratio at 180 min ([5]; human, all concentrations (10, 100, and 250 µM), Caco-2 monolayer, read-out: ER (Papp b-a/Papp a-b)): ~1
